Consider four compounds from patent US20130274210A1, “DENDRIMERS WITH A SACCHARIDE ENDING FOR ANTI-INFLAMMATORY PURPOSES” (UNIVERSITE PAUL SABATIER TOULOUSE III, priority 2010, published 2013).

Data set [1] deals with human dendritic cells stimulated with LPS. Particulars: stimulation by LPS, via DC-SIGN receptor; background statement; cited from earlier work.
A short description of data set [2]: Solubility (properties of prepared molecules). It counts as physicochemical.

Take Mannosylated lipoarabinomannan [ManLAM]: in data set [1], the “production of IL-10 by human dendritic cells” value is reported as “increase in the production of IL-10” and the “production of pro-inflammatory cytokines by human dendritic cells” value is “decrease in the production of pro-inflammatory cytokines”. `NNC(=O)CCOC1OC(CO)C(O)C(O)C1O` (centres unmarked): in data set [2], the solubility entry is reported as “soluble in H2O, MeOH, DMF”.

With `NNC(=O)CCCCCCCCOC1OC(CO)C(O)C(O)C1OC1OC(CO)C(O)C(O)C1OC1OC(CO)C(O)C(O)C1O` (centres unmarked), the solubility result in data set [2] is listed as “soluble in H2O, MeOH, DMF”.

Take `NNC(=O)CCCCCCCCOC1OC(CO)C(O)C(O)C1OC1OC(CO)C(O)C(O)C1O` (centres unmarked): the solubility result in data set [2] is given as “soluble in H2O, MeOH, DMF”.
